# Source: patent US12527746B2, “Peptide/particle delivery systems” (The Johns Hopkins University, priority 2009, dated 2026)
# Non-standard residues stand in square brackets, D forms with d. No end group written: not given here. Abu = CC[C@H](N)C(=O)O
# Assays:
# rho/VEGF (V6) mouse = assay: rho/VEGF (V6) mouse, genetic model of wet age-related macular degeneration; type: in vivo, mice; settings: 8 weeks after injection
# Source text: Referring now to FIG. 49 in shown the in vivo effects of microparticle formulations in both the CNV and rho/VEGF model over time. DEAH (SP6001)-336 PBAE nanoparticle formulation made as described previously (“DEAH” disclosed as SEQ ID NO: 2484). […] (Middle) and (Bottom) A genetic model of wet form of age-related macular degeneration in mice used to test long-term effect of microparticles. […] While PLGA is used to form the microparticles used above, other polymers may be used including the synthetic polyesters and polyamides described above. In certain embodiments, blends of these polymer are combined with PLGA to form microparticles with differing environmental sensitivity and release properties; (a) the effect of microparticle (SP-6001) in CNV model mouse; (b) the effect of microparticle (SP-6001) in rho/VEGF (V6) mouse, 1 week after injection; and (c) the effect of microparticle (SP-6001) in rho/VEGF (V6) mouse, 8 weeks after injection.
# [1] = tested on: MDA-MB-231 tumor xenograft; assay: MDA-MB-231 breast cancer xenograft, orthotopic, i.p. peptide; design: species or system SCID mice; settings: mouse, in vivo
# Source text: BMC Cancer 2010; 10:29, and in a breast cancer xenograft model using MDA-MB-231 cells. Koskimaki J E, Karagiannis E D, Rosca E V, Vesuna F, Winnard P T, Jr., Raman V, et al. Peptides derived from type IV collagen, CXC chemokines, and thrombospondin-1 domain-containing proteins inhibit neovascularization and suppress tumor growth in MDA-MB-231 breast cancer xenografts. Neoplasia 2009; 11(12):1285-91.
# Following orthotopic inoculation of SCID mice in the mammary fat pad area using 2×10^6 cells, tumors grew to approximately 100 mm^3 in 2 weeks; at that time 100 μL of peptide solution was injected i.p. once a day at peptide doses 10-20 mg/kg. PBS solution was injected as control. […] The microvessel density was determined by screening the immunohistologically stained CD31 sections. Inhibition of LEC migration in the ACEA migration assay also was determined (see FIG. 33B).
# CNV laser mouse model = assay: CNV laser mouse model, intravitreous injection, choroidal flat mounts; type: in vivo, C57 BL/6 female mice; settings: day 14
# Source text: Referring now to FIG. 9 is shown in vivo 336 polymer nanoparticle/SP6001 DEAH peptide (“DEAH” disclosed as SEQ ID NO: 2484); Peptide-336 polymer nanoparticles were formulated as previously described and intravitreously injected to test in vivo efficacy. ACNV laser mouse model was used on C57 BL/6 female mice. The mice receive laser eye treatments on day zero, followed by the intravitreous injections. Mice are then perfused with fluorescein labeled dextran on day 14 and choroidal flat mounts (bottom) were analyzed via fluorescence microscopy.
# Referring now to FIG. 49 in shown the in vivo effects of microparticle formulations in both the CNV and rho/VEGF model over time. DEAH (SP6001)-336 PBAE nanoparticle formulation made as described previously (“DEAH” disclosed as SEQ ID NO: 2484). […] (Middle) and (Bottom) A genetic model of wet form of age-related macular degeneration in mice used to test long-term effect of microparticles. […] While PLGA is used to form the microparticles used above, other polymers may be used including the synthetic polyesters and polyamides described above. […]
# endothelial cells [2] = assay: Anti-proliferative and anti-migratory activity of free peptides on endothelial cells; type: cell-based
# Source text: Several classes of peptides have been developed that show either anti-proliferative or anti-migratory activity or both on endothelial cells. These peptides appear to function through distinct mechanisms of action and have been tested both in vitro and in vivo in tumor xenografts and in ocular mouse models.
# (§1) It is believed that this peptide is the first antilymphangiogenic peptide agent.
# [3] = tested on: lymphatic endothelial cells; assay: Anti-proliferative and anti-migratory activity of free peptides on lymphatic endothelial cells; type: cell-based
# Source text: as §1
# endothelial cells [4] = assay: Endothelial cell proliferation, peptides encapsulated in polymeric particles vs free peptides; type: cell-based; settings: encapsulated within polymeric particles compared to unencapsulated
# Source text: Changes to polymer structure, including small changes to the ends of the polymer only, can vary biophysical properties of these particles. These properties can be important to tune for effective in vivo peptide delivery. A small subset of the potential polymer library was screened to measure the effect of encapsulating the antiangiogenic peptides chemokinostatin-1 and pentastatin-1 within polymeric particles compared to unencapsulated, free peptides. […] An example of representative polymers encapsulating peptides is provided in Scheme 5.
Substance,anti-proliferative and anti-migratory activity (endothelial cells [2]),inhibition of endothelial cell proliferation (endothelial cells [4]),also measured
"EIELVEEEPPF [SP6001, 11-mer anti-angiogenic peptide derived from the serpin domain of DEAH box polypeptide]",–,–,inhibition of angiogenesis (rho/VEGF (V6) mouse): no longer inhibits angiogenesis; tumor xenograft growth [1]: significant inhibition; angiogenesis in the eye (CNV laser mouse model): significantly reduced angiogenesis
LLRISLLLIESWLE [SP5033],anti-proliferative and anti-migratory activity,–,anti-proliferative and anti-migratory activity [3]: anti-proliferative and anti-migratory activity
LRRFSTMPFMF-Abu-NINNV-Abu-NF (LRRFSTMPFMF[Abu]NINNV[Abu]NF; listed as Homo sapiens) [SP2012],highly potent anti-proliferative and anti-migratory,–,–
LRRFSTMPFMFCNINNVCNF [Pentastatin],–,enhanced the ability of the peptides to inhibit the proliferation of endothelial cells,–
NGRKACLNPASPIVKKIIEKMLNS [Chemokinostatin],–,enhanced the ability of the peptides to inhibit the proliferation of endothelial cells,–
